Assay results taken from patent US9000048B2, “Fluoropolymer-based emulsions for the intravenous delivery of fluorinated volatile anesthetics” (Wisconsin Alumni Research Foundation, priority 2006, dated 2015).
In brackets after ≈: the same amount, converted by molar mass.

What was measured:
[1] = in vivo; cited from earlier work
[2] = Emulsion droplet sizing and stability by dynamic light scattering and visual phase separation; type: physicochemical
Experimental: The emulsions were sized by dynamic light scattering prior to use. For these measurements, the emulsions were mixed by inversion of the centrifuge tube to eliminate inhomogeneity due to either flocculation or sedimentation. The emulsions were then diluted by a factor of 300 by adding 10 μL of the emulsion to 2.990 mL of 0.9% NaCl. Sizing was done by dynamic light scattering (NICOMP 380 ZLS, Particle Sizing Systems, Santa Barbara, Calif.) with a 639 nm laser at a scattering angle of 90°. Each sample was run for 15 min and all numbers are reported as Gaussian volume weighted. The emulsions were only used if the average diameter was less than 350 nm. This cutoff was established to ensure consistent physical characteristics of the emulsion and to prevent acute toxicity that can develop with increased particle size.^15 Additionally, the emulsion was filtered through a 0.45 μm nylon syringe filter. The final nano-emulsions are milky-white.
As a typical example, sevoflurane (Abbott Labs, N. Chicago, Ill., 3.4 mL) and perfluorooctyl bromide (SynQuest Laboratories, Inc., Alachua, Fla., 1.7 mL) were added to an aqueous 0.9% NaCl solution (11.9 mL) of F13M5 (298 mg, 25 mg/mL), for a total volume of 17 mL. The two-phase mixture was homogenized with a low energy mixer (Power Gen 500, Fisher Scientific, Hampton, N.H.) for 1 min at 21000 rpm at room temperature. The crude emulsion was further homogenized under high pressure (5000 psi, 1 min) using a Microfluidizer (model 110 S, Microfluidics Corp., Newton, Mass.) with the temperature maintained at 20.0° C. with a cooling bath. The product emulsions were stored in 15 mL sterile centrifuge tubes (Corning Inc., Corning, N.Y.) at 4° C. until use. All emulsions were prepared in this same manner with the requisite percentages of each component as necessary. Intralipid emulsions were prepared by adding sevoflurane to Intralipid (20%, Fresenius Kabi, Uppsala, Sweden) and then homogenizing and microfluidizing as above. […]

[3] = in vivo; cited from earlier work; remark: listed apart in the source
[4] = cited from earlier work
[5] = cited from earlier work; remark: listed apart in the source
[6] = Solubility of perfluorotridecane in sevoflurane; type: physicochemical; settings: organic solvent or mixture, read-out: maximum solubility of perfluorotridecane in sevoflurane
Description: If intercalation of perfluorotridecane between the perfluorocarbon blocks of F13M5 is the reason that phase separation occurred with sevoflurane, the same effect might be expected to happen when perfluorotridecane is used as an additive to stabilize emulsions of either FC-72 and perfluorooctyl bromide. […] The difference in emulsion stability is likely due to the different solubility of perfluorotridecane in the three fluorinated compounds. […] It is likely that the limited solubility of perfluorotridecane in sevoflurane led to its preferential adsorption at the interface, rather than at the center of the droplet. The greater solubility of perfluorotridecane in the other solvents allowed it to more easily reside in the center of the droplet and act truly as a secondary oil additive.

Q: Which “circulatory half-time / half life in the body” value [1] does the source give for FC(F)(F)C(F)(F)C(F)(F)C(F)(F)/C=C/C(F)(F)C(F)(F)C(F)(F)C(F)(F)F [bis-perfluorobutyl ethylene] here?
A: 170 h

Q: For FC(F)(F)C(F)(F)C(F)(F)C(F)(F)C(F)(F)C(F)(F)C(F)(F)C(F)(F)Br [perfluorooctyl bromide], which “circulatory half-time / half life in the body” value [1] is on record?
A: four

Q: What about the “ripening with different stabilizing additives” value [2] of the same compound?
A: ripen similarly

Q: What about the “droplet size / Ostwald ripening with perfluorotridecane as the additive” value ([2]; 20% v/v primary oil, perfluorotridecane additive, 1.5% w/v F13M5) of the same compound?
A: the size stabilized and Ostwald ripening appeared to be stopped

Q: For perfluoro(methyldecalin), which “circulatory half-time / half life in the body” value [1] is on record?
A: 264 h

Q: Which “circulatory half-time / half life in the body” value [1] does the source give for FC(F)(Cl)C(F)(F)C(F)(F)C(F)(F)C(F)(F)C(F)(F)C(F)(F)C(F)(F)Cl [perfluorodichlorooctane] here?
A: 170 h

Q: Which “therapeutic index, previously published values” [3] does the source give for CCCC(C)C1(CC)C(=O)NC(=S)NC1=O (centres unmarked) [thiopental] here?
A: 2.2

Q: With FCOC(C(F)(F)F)C(F)(F)F [sevoflurane] as the compound, how does the water solubility [4] read?
A: 6 mM (≈ 1200 µg/mL)

Q: What about the “maximum solubility of sevoflurane in 30% Intralipid” value ([5]; 30% Intralipid, gas equilibration) of the same compound?
A: 3.46 % v/v

Q: And the “maximum amount of sevoflurane that can be stably emulsified in Intralipid” value ([5]; Intralipid)?
A: 3.5 % v/v

Q: What about the “maximum of sevoflurane emulsified in Intralipid” value ([5]; in volume, non-fluorinated lipids (Intralipid)) of the same compound?
A: 3.6%

Q: For FC(F)(F)C(F)(F)C(F)(F)C(F)(F)C(F)(F)C(F)(F)C(F)(F)C(F)(F)C(F)(F)C(F)(F)C(F)(F)C(F)(F)C(F)(F)F [perfluorotridecane], which solubility [6] is on record?
A: 78 mg/mL (≈ 113 mM)

Q: For FC1(F)C(F)(F)C(F)(F)C2(F)C(F)(F)C(F)(F)C(F)(F)C(F)(F)C2(F)C1(F)F (centres unmarked) [perfluorodecalin], which “ripening with different stabilizing additives” value [2] is on record?
A: ripen similarly

Q: Which “therapeutic index, previously published values” [3] does the source give for CC(C)c1cccc(C(C)C)c1O [propofol] here?
A: 3.1
